From PubChem BioAssay (NCI) come the findings set out here.

Test systems include MDA-MB-231 breast; NCI-H23 lung; SNB-75 CNS; EKVX NSCLC; OVCAR-3 ovarian; MALME-3M melanoma; SF-295 CNS; HL-60(TB) leukemia; HCT-116 colon; MOLT-4 leukemia.
Assay in all cases: NCI anticancer screen, dose series, 48 h

The structures appear in SMILES notation.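 Where inhibition never reached the appropriate level, the endpoint shown equals the highest concentration tested. Otherwise, values were interpolated linearly from a five-concentration, 48-hour dose response in 96-well plates. GI50 = concentration required for 50% inhibition of growth. The concentration for full growth arrest is given as TGI.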

`O=C(NCc1ccc(Cn2c(=O)sn(-c3ccccc3)c2=O)cc1)OCc1ccc2c(Br)cc(Br)c(O)c2n1`: the GI50 is 1.18 µM in the test with MDA-MB-231 breast; 1.4 µM in the test with NCI-H23 lung; 0.606 µM with SNB-75 CNS; 1.5 µM with EKVX NSCLC; 0.267 µM with OVCAR-3 ovarian; 1.38 µM with MALME-3M melanoma. Moreover, the GI50 with SF-295 CNS is 1.6 µM; in the test on HL-60(TB) leukemia, 0.659 µM; in the test on HCT-116 colon, 0.141 µM; with MOLT-4 leukemia it was 0.503 µM. The TGI in the test on MDA-MB-231 breast stood at 2.53 µM; in the test with NCI-H23 lung it was 3.06 µM; with SNB-75 CNS, 1.97 µM; in the test on EKVX NSCLC, 3.12 µM; with OVCAR-3 ovarian, 0.738 µM; with MALME-3M melanoma it was 2.78 µM. The TGI with SF-295 CNS was 3.06 µM; in the test with HL-60(TB) leukemia, greater than 20.3 µM; in the test with HCT-116 colon, 0.328 µM; with MOLT-4 leukemia it was greater than 22.3 µM.

As for `CC(=Nc1ccccc1)C1=C(O)C(Cc2ccccc2)NC1=O` (stereo not given), the GI50 was 0.224 µM in the test on MDA-MB-231 breast; 0.0669 µM with NCI-H23 lung; 0.0246 µM in the test with SNB-75 CNS; 0.0798 µM in the test with EKVX NSCLC; 0.0237 µM in the test on OVCAR-3 ovarian; 0.018 µM with MALME-3M melanoma. Moreover, the GI50 is 0.0238 µM in the test on SF-295 CNS, 0.0265 µM in the test with HL-60(TB) leukemia, 0.0363 µM in the test with HCT-116 colon and 0.0753 µM in the test on MOLT-4 leukemia. The TGI with MDA-MB-231 breast is greater than 100 µM; in the test with NCI-H23 lung, greater than 100 µM; in the test on SNB-75 CNS, 0.0788 µM; in the test with EKVX NSCLC, greater than 100 µM; in the test on OVCAR-3 ovarian, 0.0535 µM; with MALME-3M melanoma, greater than 100 µM. Moreover, the TGI with SF-295 CNS is 0.0721 µM; in the test with HL-60(TB) leukemia it was 0.0671 µM; in the test on HCT-116 colon, 0.51 µM; in the test with MOLT-4 leukemia, greater than 100 µM.

Take `CCCCS(=O)(=O)CCC(N)C(=O)O` (stereo not given): the TGI in the test with MDA-MB-231 breast, with NCI-H23 lung, in the test on SNB-75 CNS, with EKVX NSCLC, in the test with OVCAR-3 ovarian and with MALME-3M melanoma was greater than 100 µM throughout. Further, the TGI with SF-295 CNS, with HL-60(TB) leukemia, in the test on HCT-116 colon and in the test with MOLT-4 leukemia was greater than 100 µM in each case.

For `Cc1occc1C(=S)Nc1ccc(Cl)c(C(=O)OC(C)C2CC2)c1` (stereo not given), the TGI in the test with MDA-MB-231 breast was determined as 45.7 µM; in the test with NCI-H23 lung, 40.1 µM; in the test on SNB-75 CNS, 68.9 µM; in the test with EKVX NSCLC, 54.9 µM; in the test with OVCAR-3 ovarian it was 35.3 µM; with MALME-3M melanoma, 36.4 µM. In addition, the TGI in the test on SF-295 CNS is 39 µM; in the test on HL-60(TB) leukemia, 54.1 µM; in the test on HCT-116 colon, greater than 100 µM; in the test on MOLT-4 leukemia, 57.5 µM.

Regarding `COc1cc2c(cc1C)NC(=O)/C2=C\c1cccc(Oc2ccccc2)c1`, the GI50 in the test with MDA-MB-231 breast is 16.3 µM; in the test with NCI-H23 lung it was 13.6 µM; in the test with SNB-75 CNS it was 25 µM; in the test on EKVX NSCLC, 15.4 µM; with OVCAR-3 ovarian, 13.2 µM; with MALME-3M melanoma it was 26.1 µM. For the same compound, the GI50 in the test with SF-295 CNS is 16.8 µM; with HL-60(TB) leukemia, 11.9 µM; in the test with HCT-116 colon it was 7.88 µM; in the test with MOLT-4 leukemia it was 6.23 µM. The TGI with MDA-MB-231 breast amounted to 37.4 µM; with NCI-H23 lung, 28.3 µM; in the test on SNB-75 CNS, 49.6 µM; in the test on EKVX NSCLC, 41.7 µM; in the test with OVCAR-3 ovarian, 26.8 µM; in the test with MALME-3M melanoma it was 44.6 µM. Moreover, the TGI in the test on SF-295 CNS is 31.8 µM; with HL-60(TB) leukemia, 26.8 µM; in the test on HCT-116 colon, 20.4 µM; in the test with MOLT-4 leukemia, 21.8 µM.

Take `O=C(O)c1cccc(N=Nc2c(S(=O)(=O)O)ccc3c2C(=O)c2ccccc2C3=O)c1O`: the TGI in the test on MDA-MB-231 breast, in the test on NCI-H23 lung, in the test on SNB-75 CNS, with EKVX NSCLC, in the test on OVCAR-3 ovarian and with MALME-3M melanoma was greater than 100 µM throughout. For the same compound, the TGI in the test with SF-295 CNS, in the test on HL-60(TB) leukemia, in the test with HCT-116 colon and with MOLT-4 leukemia was greater than 100 µM each time.

As for `CN(CC(=O)N(Cc1ccc(C2CCCCC2)cc1)c1ccc(C(=O)O)c(O)c1)S(=O)(=O)c1c(F)c(F)c(F)c(F)c1F`, the GI50 in the test with MDA-MB-231 breast was 1.86 µM; in the test with NCI-H23 lung it was 10.6 µM; in the test on SNB-75 CNS, 6.07 µM; with EKVX NSCLC it was 15.7 µM; in the test on OVCAR-3 ovarian it was 9.95 µM; with MALME-3M melanoma, 2.89 µM. Further, the GI50 was 17.4 µM in the test on SF-295 CNS, 2.18 µM with HL-60(TB) leukemia, 3.72 µM in the test with HCT-116 colon and 3.12 µM in the test on MOLT-4 leukemia. In addition, the TGI in the test on MDA-MB-231 breast came out at 4.13 µM; with NCI-H23 lung, 26.9 µM; with SNB-75 CNS, 16.7 µM; in the test with EKVX NSCLC, 29.8 µM; in the test on OVCAR-3 ovarian, 23.3 µM; with MALME-3M melanoma, 12.3 µM. Also, the TGI in the test on SF-295 CNS turned out to be 37.2 µM; in the test with HL-60(TB) leukemia it was 5.82 µM; in the test with HCT-116 colon, 11.9 µM; with MOLT-4 leukemia it was 12 µM.

Regarding `COc1cc2c(cc1Nc1nc(Nc3ccsc3C(N)=O)c3cc[nH]c3n1)N(C(=O)CN(C)C)CCC2(C)C`, the GI50 with MDA-MB-231 breast was 3.22 µM; in the test on NCI-H23 lung, 0.791 µM; in the test with SNB-75 CNS, 2.7 µM; in the test with EKVX NSCLC, 0.453 µM; with OVCAR-3 ovarian, 2.05 µM; with MALME-3M melanoma, 1.48 µM. Besides, the GI50 with SF-295 CNS is 3.33 µM; in the test on HL-60(TB) leukemia, less than 0.0025 µM; with HCT-116 colon, 1.05 µM; in the test with MOLT-4 leukemia, 1.9 µM. The TGI is 7.42 µM in the test on MDA-MB-231 breast; 5.15 µM in the test with NCI-H23 lung; 5.9 µM in the test on SNB-75 CNS; 4.97 µM in the test on EKVX NSCLC; 5.17 µM in the test on OVCAR-3 ovarian; 5.62 µM in the test on MALME-3M melanoma. Also, the TGI with SF-295 CNS came to 7.39 µM; in the test with HL-60(TB) leukemia, 2.04 µM; in the test on HCT-116 colon it was 4.8 µM; in the test on MOLT-4 leukemia, 8.91 µM.

As to `O=C(/C=C/c1cc([N+](=O)[O-])ccc1Cl)c1ccccc1`, the GI50 in the test with MDA-MB-231 breast was 19.3 µM; in the test with NCI-H23 lung it was 15.6 µM; in the test on SNB-75 CNS it was 21.7 µM; in the test with EKVX NSCLC, 13 µM; in the test on OVCAR-3 ovarian, 5.08 µM; with MALME-3M melanoma, 19.4 µM. The GI50 is 15.6 µM with SF-295 CNS, 32 µM in the test on HL-60(TB) leukemia, 1.59 µM in the test on HCT-116 colon and 21.1 µM with MOLT-4 leukemia. For the same compound, the TGI turned out to be 70.7 µM in the test on MDA-MB-231 breast; 36.2 µM in the test on NCI-H23 lung; 99.6 µM in the test on SNB-75 CNS; 43.2 µM in the test with EKVX NSCLC; 16.1 µM with OVCAR-3 ovarian; 44.7 µM in the test on MALME-3M melanoma. Also, the TGI with SF-295 CNS was 49.6 µM; in the test on HL-60(TB) leukemia, 96.4 µM; with HCT-116 colon it was 2.93 µM; with MOLT-4 leukemia, greater than 100 µM.
